Measured values as given in patent US20130281409A1, “Myelin Sheath Fatty Acids that Resolve Neuroinflammation” (priority 2012, published 2013).
Read-outs that look alike come from different tables or passages of the source.

How the values were obtained:
[1] = system: azPC-mediated inhibition of MBP Ac1-11 specific T cell proliferation; experiment: Phospholipase inhibitor effect on azPC-mediated inhibition of T cell proliferation; type: cell-based, mouse; details: about 40 min pre-incubation with inhibitor, 2 μg/ml MBPAc1-11, 30 μg/ml azPC, 48 hours
Protocol: 5×10^6 cells/ml were pre-incubated in complete RPMI media for about 40 min at 37° C. with 5% CO2, in the presence of the corresponding vehicle (DMSO or 100% ethanol) or a phospholipase inhibitor: OBAA (500 nM, Tocris Bioscience), U 73122 (500 nM, Tocris Bioscience), 525143 (5 μM, EMD, Calbiochem), FKGK 11 (50 μM, Caymen Chemical), YM 26734 (250 μM, Tocris Bioscience), LY 311727 (500 μM, Tocris Bioscience), CAY10590 (200 μM, Caymen Chemical), 525145 (5 μM, EMD, Calbiochem). Afterwards, the splenocytes were plated in triplicate and stimulated in vitro with 2 μg/ml of MBPAc1-11 in the presence of 30 μg/ml azPC for 48 hours. Proliferation response is the ratio of the average triplicate wells of MBP+azPC divided by the average triplicate wells of MBP, or MBP divided by MBP.

[2] = system: MBPAc1-11-TCR transgenic splenocytes; experiment: MBPAc1-11-specific T-cell proliferation (3H-thymidine incorporation); type: cell-based, mouse; details: fatty-acid side-chain analogs, various concentrations
Protocol: (§1) Splenocytes were harvested from mice transgenic for the MBPAc1-11-specific T-cell receptor and stimulated with 2 μg/ml of MBPAc1-11 in the presence of 30 μg/ml of lipid. Lymph nodes and spleens were also harvested from naive C57BL/6 mice, and CD3^+ T-cell enrichment columns (R&D systems) were used to isolate CD3^+ T cells. The purified CD3^+ T cells were stimulated with 5 μg/ml of plate-bound anti-CD3 antibodies and anti-CD28 antibodies in the presence of 30 μg/ml of POPS, PGPC, azPC ester, brain sulfatides, or azPC, 0.25 mM palmitic acid, or 100% ethanol (as the vehicle control). For assessment of proliferation, 1 μCi of ^3H-thymidine was added to each well for the final 18-24 hours of culture, and incorporation of radioactivity was measured by using a Betaplate scintillation counter. Cytokine assays were performed on culture supernatants after 24 (IL-12p40) or 48 hours (IFN-γ, IL-6, and TNF) of culture by using the BD OptEIA™ Mouse ELISA kits (BD Biosciences).
5×10^6 cells/ml were stimulated in vitro with 2 μg/ml of MBPAc1-11 in the presence of various concentrations of palmitic acid (Sigma), other lipids, or 100% Ethanol (vehicle alone).
For assessment of proliferation, 1 μCi of ^3H-thymidine was added to each well for the final 18 hours of culture, and incorporation of radioactivity was quantified using a Betaplate scintillation counter.

[3] = system: CD3+ T cells (gated on CD4+ T cells); experiment: T-cell apoptosis, Annexin V and 7AAD staining; type: cell-based, mouse; details: 0.25 mM palmitic acid, anti-CD3 and anti-CD28, 48 h
Protocol: FIG. 5. […] (C) TUNEL staining of brain and spinal-cord tissue from mice immunized with PLP139-151 peptide (to induce EAE) and treated for 12 h with azPC, POPS, or vehicle on day 15 after immunization. […] (D) Quantification of TUNEL-positive infiltrating cells in brain and spinal cord shown in panel (C). Cells were stained according to standard protocols, run on a FACScan flow cytometer (BD Biosciences), and analysed with CellQuest software (BD Immunocytometry Systems). The antibody conjugate used was FITC anti-CD4, clone GK1.5 (BD Pharmingen). 7AAD staining was performed by using the Annexin V-PE Apoptosis Detection Kit I (BD Pharmingen). Cells were stained according to standard protocols, run on a FACScan flow cytometer (BD Biosciences), and analysed with CellQuest software (BD Immunocytometry Systems) or with FlowJo software version 6.3.2 (Tree Star, Inc.).

CD3+ T cells [4] = experiment: Proliferation of anti-CD3/anti-CD28-stimulated purified T cells; type: cell-based, mouse; details: anti-CD3 and anti-CD28, 0.25 mM palmitic acid, 48 h
Protocol: Splenocytes were harvested from mice transgenic for the MBPAc1-11-specific T-cell receptor and stimulated with 2 μg/ml of MBPAc1-11 in the presence of 30 μg/ml of lipid. Lymph nodes and spleens were also harvested from naive C57BL/6 mice, and CD3^+ T-cell enrichment columns (R&D systems) were used to isolate CD3^+ T cells. […] Cytokine assays were performed on culture supernatants after 24 (IL-12p40) or 48 hours (IFN-γ, IL-6, and TNF) of culture by using the BD OptEIA™ Mouse ELISA kits (BD Biosciences). Cd1d^−/− T cells: We harvested splenocytes from Cd1d^−/− mice and their wild-type littermates and used CD3^+ T-cell enrichment columns (R&D systems) to isolate T cells. […] Anti-CD3/anti-CD28-stimulated purified T cells: We harvested lymph nodes and spleens from naive C57BL/6 mice and used CD3^+ T-cell enrichment columns (R&D systems) to isolate CD3^+ T cells.

CD3+ T cells [5] = experiment: Cytokine production of anti-CD3/anti-CD28-stimulated purified T cells; type: cell-based, mouse; details: anti-CD3 and anti-CD28, 0.25 mM palmitic acid, 48 h
Protocol: as §1
Anti-CD3/anti-CD28-stimulated purified T cells: We harvested lymph nodes and spleens from naive C57BL/6 mice and used CD3^+ T-cell enrichment columns (R&D systems) to isolate CD3^+ T cells. We then stimulated 1×10^6 cells/ml of T cells with 5 μg/ml of plate-bound anti-CD3 antibodies plus anti-CD28 antibodies in the presence of 30 μg/ml of POPS, PGPC, azPC ester, brain sulfatides, or azPC, […], or 100% ethanol (as the vehicle control).
Cytokine production by cells from the lymph nodes and spleens of PGPC co-immunized mice was measured after 66 hours of stimulation by using the BD OptEIA™ Mouse IFN-γ ELISA kit (BD Biosciences). Cytokine assays for the anti-CD3/anti-CD28 antibody-stimulated T cells and PLP139-151-stimulated splenocytes were performed on culture supernatants after 48 hours of stimulation using the BD OptEIA™ Mouse IL-6, IFN-γ, and TNF alpha ELISA kits (BD Biosciences) and the Mouse IL-17 DuoSet ELISA Development kit (R&D Systems).

[6] = system: EAE in PLP139-151-immunized SJL/J mice; experiment: EAE, lipid or palmitic-acid treatment of established disease; type: in vivo, mouse
Protocol: Animal experiments were approved by, and performed in compliance with, the National Institute of Health guidelines of the Institutional Animal Care and Use Committee at Stanford University. For induction of EAE, 8- to 12-week-old female SJL/J mice (Jackson Laboratory) were immunized subcutaneously with 100 μg of PLP139-151 emulsified in CFA (Difco Laboratories). Lipid and palmitic-acid treatment: Administration of lipid, palmitic acid, or vehicle was initiated once the PLP139-151-immunized mice developed paralysis (representing clinical EAE) and repeated every other day, for a total of ten separate injections. 100 μg of POPS, PGPC, azPC ester, azPC, palmitic acid, or vehicle (0.05% Tween-20 in PBS) was administered in 0.2 ml intravenously in the tail. EAE treatment with lipid: 100 μg of PGPC or sphingomyelin or vehicle ([…] Tween-20 in PBS) was administered in 0.2 ml intravenously in the tail. Treatment with lipid or vehicle was initiated once the PLP139-151-immunized mice developed paralysis (representing clinical EAE) and repeated 3, 6, 12, and 18 days later, for a total of five separate injections.

[7] = system: EAE in PLP139-151-immunized SJL/J mice; experiment: EAE, lipid administered prophylactically (co-immunization with PLP139-151); type: in vivo, mouse; details: 6 μg/injection; s.c. with PLP139-151 on day 0, i.p. on days 4 and 7
Protocol: Animal experiments were approved by, and performed in compliance with, the National Institute of Health guidelines of the Institutional Animal Care and Use Committee at Stanford University. For induction of EAE, 8- to 12-week-old female SJL/J mice (Jackson Laboratory) were immunized subcutaneously with 100 μg of PLP139-151 emulsified in CFA (Difco Laboratories). Three injections of PGPC (6 μg/mouse/injection) or vehicle (0.05% Tween-20 in PBS) were delivered on days 0, 4, and 7 after immunization with PLP139-151. On day 0, the lipid or vehicle was emulsified together with PLP139-151 in CFA and administered by subcutaneous injection. At subsequent time points, lipid or vehicle was injected intraperitoneally. EAE was assessed as previously described. To induce EAE in SJL/J mice (Jackson Mice), we immunized 8- to 12-week-old female animals subcutaneously with 100 μg of PLP139-151 emulsified in CFA (Difco Laboratories). Prophylactic administration of lipid: Three injections of PGPC or sphingomyelin (6 μg/mouse/injection) or vehicle (0.05% Tween-20 in PBS) were delivered on days 0, 4, and 7 after immunization with PLP139-151. […] Clinical disease was monitored daily using the following scoring system: 0, no disease; 1, limp tail; 2, hind limb weakness; 3, hind limb paralysis; 4, hind limb and forelimb paralysis; 5, death. […]

[8] = system: NF-κB and ERK pathways, Bcl-2 family proteins; experiment: Immunoblot of inflammatory, survival and apoptotic signaling in anti-CD3/anti-CD28-stimulated T cells; type: cell-based, mouse; details: 30 μg/ml lipid, 15 min or 24 h
Protocol: CD3^+ T cells were isolated from the lymph nodes of naïve C57BL/6 mice by using CD3^+ T-cell enrichment columns (R&D systems). […] Cells were washed with ice-cold PBS and lysed in RIPA lysis buffer containing 1X Halt protease and phosphatase inhibitor cocktail (Pierce) with a Dounce homogenizer. Immunoblotting was performed with antibodies against phospho-Bim ([…]), phospho-Bad ([…]), phospho-Bcl-2 ([…]), phospho-IKKα/β (serines 180/181), phospho-p65 ([…]), phospho-ERK1/2 […]), and IκBα from Cell Signaling Technology.

[9] = system: EAE in PLP139-151-immunized SJL/J mice; details: prophylactic regimen, previously tested by the applicant, cited from earlier work

CCCC[C@H](CCC(=O)O)NC(=O)CCCCCCc1ccccc1 [CAY10950]
Effect on azPC (azPC-mediated inhibition of MBP-specific T cell proliferation) [1]: Inhibited

O=C(CCCCc1ccccc1)C(F)(F)C(F)(F)F [FKGK 11]
Effect on azPC (azPC-mediated inhibition of MBP-specific T cell proliferation) [1]: No effect

CCc1c(CC(N)=O)c2cc(OCCCP(=O)(O)O)ccc2n1Cc1ccccc1 [LY 311727]
Effect on azPC (azPC-mediated inhibition of MBP-specific T cell proliferation) [1]: Inhibited

COc1ccc2c(c1)CC[C@@H]1[C@@H]2CC[C@]2(C)[C@@H](NCCCCCCN3C(=O)C=CC3=O)CC[C@@H]12 [U 73122]
Effect on azPC (azPC-mediated inhibition of MBP-specific T cell proliferation) [1]: No effect

CCCCCCCCCCCC(=O)c1c(O)c(C(=O)CCCCCCCCCCC)c(O)c(C2CC(c3ccc(O)cc3)Oc3cc(O)ccc32)c1O (stereo not drawn) [YM 26734]
Effect on azPC (azPC-mediated inhibition of MBP-specific T cell proliferation) [1]: Inhibited

CCCCCCCC(=O)OC [methyl octanoate]
concentration at which T-cell proliferation was suppressed [2]: 10 mM

CCCCCCCC(=O)O [octanoic acid]
concentration at which T-cell proliferation was suppressed [2]: 5 mM

CCCCCCCCCCCCCCCC(=O)O [palmitic acid]
T-cell apoptosis [3]: induced T-cell apoptosis | T-cell proliferation (CD3+ T cells [4]): suppressed T-cell proliferation as effectively as the phospholipids | T-cell production of IFN-γ (CD3+ T cells [5]): suppressed | T-cell production of IL-6 (CD3+ T cells [5]): suppressed | T-cell production of IL-17 (CD3+ T cells [5]): suppressed | T-cell production of TNF (CD3+ T cells [5]): suppressed | concentration at which T-cell proliferation was suppressed [2]: 0.1 mM | EAE course after treatment was halted ([6]; 100 μg i.v. every other day, then stopped): disease relapsed | EAE severity, established disease ([6]; 100 μg i.v. once paralysis developed, every other day, ten injections): attenuated EAE

Sphingomyelin [reference compound]
EAE severity (clinical score) [7]: attenuated EAE | EAE severity, established disease ([6]; 100 μg i.v. from disease onset (10 days after immunization), five injections): exacerbated EAE

sulfatide [reference compound]
CD3/CD28-induced activation of the NF-κB and ERK pathways [8]: neither inhibited | EAE severity [9]: exacerbated EAE | EAE severity ([9]; listed as sulfatides): worsened EAE
